Laboratory results from patent publication USRE45173E1, “Inhibitors of CYP 17” (Novartis AG, priority 2009, dated 2014).
pIC50: −log10 of the molar value. Structures can show the parent of a compound that is named as a salt.

Biological target: recombinant human CYP17 enzyme (Homo sapiens (Human), UniProt P05093)
Assay: Cytochrome P450, 17-20 lyase (CYP17-lyase) assay, tritiated acetic acid release from 17-α-hydroxy pregnenolone [21-3H]
Assay type: biochemical
Settings: human CYP17, substrate 0.25 μM; read-out: Lyase IC 50 nM Human/Rat (Human)
Source text: Assay method was adopted from a published protocol with some modifications to suit our requirements (Dmitry N Grigoryev et al, Analytical Biochemistry, (1999) 267, 319-330). […] Chloroform extraction removes the radioactive steroids and acetic acid is taken into aqueous layer. The tritiated acetic acid released in the assay thus extracted is quantified to determine the enzyme activity. […] The purified cell membrane preparations were used as the source for Human CYP17 enzyme. […] O, Nijar, et al., J Med Chem, (1998) 41, 902-912). […] Km for this substrate was determined by monitoring the tritiated acetic acid release as a function of substrate concentration. […] For the Km determination, the data was fit to a hyperbolic equation (Graphpad Prism® software IV). […] (Dmitry N. Grigoryev et al, Analytical Biochemistry (1999) 267, 319-330) […] NADPH is used at a final concentration of 4.2 mM. Total reaction volume was made up to 50 μL with 50 mM Phosphate buffer pH 7.5. The reaction mixture was incubated at room temperature for 90 minutes with gentle shaking. The reaction was stopped by the addition of 100 μL of buffer. 500 μL of 5% freshly prepared activated charcoal was added to the solution and mixed well by vortexing. The samples were centrifuged at 17568×g for 5 minutes. (14000 rpm). The supernatant was carefully transferred to fresh tube and 1.3 mL of scintillation fluid was added, mixed by vortexing. The radioactivity was measured in a 1450 MicroBeta TriLux™ scintillation counter from Wallac-Perkin Elmer®, USA. The measurements were carried out in 2.0 mL Eppendorforf™ tubes. […] The amount of tritiated acetic acid released is proportional to the lyase activity. Percent lyase activity in presence of inhibitor was calculated using the formula given below. […] Enzyme reaction in presence of inhibitor. • Positive control: […] For IC50 determination, the % inhibition was plotted as a function of inhibitor concentration. The data was fitted to sigmoidal equation using Graphpad Prism® software IV to generate IC50 values.

recombinant human CYP17 enzyme, sequence (P05093 whole entry): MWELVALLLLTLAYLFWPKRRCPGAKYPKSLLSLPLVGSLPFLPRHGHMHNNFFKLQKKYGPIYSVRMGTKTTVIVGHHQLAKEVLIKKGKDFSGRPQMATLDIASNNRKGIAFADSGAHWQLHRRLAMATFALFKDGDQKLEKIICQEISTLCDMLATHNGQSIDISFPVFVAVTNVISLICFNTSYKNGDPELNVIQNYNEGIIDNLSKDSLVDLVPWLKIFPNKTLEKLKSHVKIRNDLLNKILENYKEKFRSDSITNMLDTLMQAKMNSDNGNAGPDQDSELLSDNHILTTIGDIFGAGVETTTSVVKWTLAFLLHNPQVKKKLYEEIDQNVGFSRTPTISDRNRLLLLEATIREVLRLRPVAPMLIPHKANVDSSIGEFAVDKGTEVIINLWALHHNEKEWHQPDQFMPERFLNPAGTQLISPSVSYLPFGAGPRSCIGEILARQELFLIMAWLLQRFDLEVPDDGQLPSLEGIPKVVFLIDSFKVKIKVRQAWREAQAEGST

| IC50 [nM] | Compound |
| --- | --- |
| 3.4 | CCc1ccncc1N1CCN(c2ccc3ncsc3c2)C1=O [Example 159A, 1-(benzo[d]thiazol-6-yl)-3-(4-ethylpyridin-3-yl)imidazolidin-2-one] |
| 10 | Cc1ccncc1N1CCN(c2ccc(F)c(Cl)c2)C1=O [Example 46A, 1-(3-Chloro-4-fluoro-phenyl)-3-(4-methyl-pyridin-3-yl)-imidazolidin-2-one] |
| 255 | Cc1ccncc1N1CCN(c2ccc(-c3ccc(F)cc3)cc2)C1=O [Example 87A, 1-(4′-Fluoro-biphenyl-4-yl)-3-(4-methyl-pyridin-3-yl)-imidazolidin-2-one] |
| 46 | Cc1ccncc1N1CCN(c2ccc3onc(C)c3c2)C1=O [Example 101A, 1-(3-Methyl-benzo[d]isoxazol-5-yl)-3-(4-methyl-pyridin-3-yl)-imidazolidin-2-one] |
| 363 | Cc1ccncc1N1CCN(c2ccc3[nH]cnc3c2)C1=O [Example 108A, 1-(1H-Benzoimidazol-5-yl)-3-(4-methyl-pyridin-3-yl)-imidazolidin-2-one] |
| 136 | COc1ccc(N2CCN(c3cnccc3C)C2=O)cc1F [Example 53A, 1-(3-Fluoro-4-methoxy-phenyl)-3-(4-methyl-pyridin-3-yl)-imidazolidin-2-one] |
| 21 | Cc1ccncc1N1CCN(c2cc3c(C)nccc3s2)C1=O [Example 194A] |
| 106 | Cc1ccncc1N1CCN(c2ccc3c(C)noc3c2)C1=O [Example 111A, 1-(3-Methyl-benzo[d]isoxazol-6-yl)-3-(4-methyl-pyridin-3-yl)-imidazolidin-2-one] |
| 38 | CC(O)c1ccncc1N1CCN(c2ccc3ncsc3c2)C1=O (centres unmarked) [Example 158A, 1-(benzo[d]thiazol-6-yl)-3-(4-(1-hydroxyethyl)pyridin-3-yl)imidazolidin-2-one] |
| 85 | O=C1N(c2ccc3ncsc3c2)CCN1c1cnccc1Cl [Example 84A, 1-Benzothiazol-6-yl-3-(4-chloro-pyridin-3-yl)-imidazolidin-2-one] |
| 346 | Cc1ccncc1N1CCN(c2ccc3c(c2)C(C)(C)C(=O)N3CO)C1=O [Example 147A, 1-Hydroxymethyl-3,3-dimethyl-5-[3-(4-methyl-pyridin-3-yl)-2-oxo-imidazolidin-1-yl]-1,3-dihydro-indol-2-one] |
| 3200 | Cc1ccncc1N1CCN(c2cnc3ccccn23)C1=O [Example 119A, 1-Imidazo[1,2-a]pyridin-3-yl-3-(4-methyl-pyridin-3-yl)-imidazolidin-2-One] |
| 27 | Cc1ccncc1N1CCN(c2ccnc(Cl)c2)C1=O [Example 58A, 1-(2-Chloro-pyridin-4-yl)-3-(4-methyl-pyridin-3-yl)-imidazolidin-2-one] |
| 14 | Cc1ccncc1N1CCN(c2ccc3c(c2)CCO3)C1=O [Example 51A, 1-(2,3-Dihydro-benzofuran-5-yl)-3-(4-methyl-pyridin-3-yl)-imidazolidin-2-one] |
| 76 | COc1cc(N2CCN(c3cnccc3C)C2=O)ccc1F [Example 74A, 1-(4-Fluoro-3-methoxy-phenyl)-3-(4-methyl-pyridin-3-yl)-imidazolidin-2-one] |
| 70 | Cc1ccncc1N1CCN(c2ccc(Cl)cc2)C1=O [Example 38A, 1-(4-Chloro-phenyl)-3-(4-methyl-pyridin-3-yl)-imidazolidin-2-one] |
| 37 | COC(OC)c1ccncc1N1CCN(c2ccc3ncsc3c2)C1=O [Example 149A, 1-Benzothiazol-6-yl-3-(4-dimethoxymethyl-pyridin-3-yl)-imidazolidin-2-one] |

| IC50 [nM] | Compound |
| --- | --- |
| 230 | Cc1ccncc1N1CCN(c2ccc3oncc3c2)C1=O [Example 113A, 1-Benzo[d]isoxazol-5-yl-3-(4-methyl-pyridin-3-yl)-imidazolidin-2-one] |
| 25 | COc1cccc(N2CCN(c3cnccc3C)C2=O)c1 [Example 56A, 1-(3-Methoxy-phenyl)-3-(4-methyl-pyridin-3-yl)-imidazolidin-2-one] |
| 496 | CC(=O)Nc1ccncc1N1CCN(c2ccc3ncsc3c2)C1=O [Example 150A, N-[3-(3-Benzothiazol-6-yl-2-oxo-imidazolidin-1-yl)-pyridin-4-yl]-acetamide] |
| 44 | O=C1N(c2ccc3ncsc3c2)CCN1c1cnccc1C(F)(F)F [Example 128A, 1-Benzothiazol-6-yl-3-(4-trifluoromethyl-pyridin-3-yl)-imidazolidin-2-one] |
| 32 | Cc1ccncc1N1CC(C)N(c2ccc3ncsc3c2)C1=O (centres unmarked) [Example 166A, 3-Benzothiazol-6-yl-4-methyl-1-(4-methyl-pyridin-3-yl)-imidazolidin-2-one] |
| 19 | O=C1N(c2ccc3ncsc3c2)CCN1c1cnccc1CNC1CC1 [Example 178A, 1-Benzothiazol-6-yl-3-(4-cyclopropylaminomethyl-pyridin-3-yl)-imidazolidin-2-one] |
| 19 | Cc1ccncc1N1CCN(c2ccc(F)c(C#N)c2)C1=O [Example 103A, 2-Fluoro-5-[3-(4-methyl-pyridin-3-yl)-2-oxo-imidazolidin-1-yl]-benzonitrile] |
| 39 | O=C1N(c2ccc3ncsc3c2)CCN1c1cnccc1CN1CCCC1 [Example 176A, 1-Benzothiazol-6-yl-3-(4-pyrrolidin-1-ylmethyl-pyridin-3-yl)-imidazolidin-2-one] |
| 1970 | Cc1ccncc1N1CCN(c2cccc3ccccc23)C1=O [Example 133A, 1-(4-Methyl-pyridin-3-yl)-3-naphthalen-1-O-imidazolidin-2-one] |
| 1260 | Cc1ccncc1N1CCN(c2ccnc(N3CCCC3)c2)C1=O [Example 85A, 1-(4-Methyl-pyridin-3-yl)-3-(2-pyrrolidin-1-yl-pyridin-4-yl)-imidazolidin-2-one] |
| 85 | Cc1ccncc1N1C(=O)N(c2ccc3ncsc3c2)C(C)C1C (centres unmarked) [Example 175A, 1-Benzothiazol-6-yl-4,5-dimethyl-3-(4-methyl-pyridin-3-yl)-imidazolidin-2-one] |
| 1550 | Cc1ccncc1N1CCN(c2cn(C)c3ccc(Cl)cc23)C1=O [Example 137A, 1-(5-Chloro-1-methyl-1H-indol-3-yl)-3-(4-methyl-pyridin-3-yl)-imidazolidin-2-one] |
| 27 | Cc1cc(NCc2ccncc2N2CCN(c3ccc4ncsc4c3)C2=O)n[nH]1 [Example 182A, 1-Benzothiazol-6-yl-3-{4-[(5-methyl-1H-pyrazol-3-ylamino)-methyl]-pyridin-3-yl}-imidazolidin-2-one] |
| 82 | Cc1ccncc1N1CCN(c2ccc3c(C4CC4)n[nH]c3c2)C1=O [Example 161A, 1-(3-Cyclopropyl-1H-indazol-6-yl)-3-(4-methylpyridin-3-yl)imidazolidin-2-one] |
| 70 | CC1(C)CN(c2ccc3ncsc3c2)C(=O)N1c1cccnc1 [Example 164A, 1-Benzothiazol-6-yl-4,4-dimethyl-3-pyridin-3-yl-imidazolidin-2-one] |
| 426 | Cc1ccncc1N1CCN(c2ccc3scnc3c2)C1=O [Example 62A, 1-Benzothiazol-5-yl-3-(4-methyl-pyridin-3-yl)-imidazolidin-2-one] |

| Compound | IC50 [nM] |
| --- | --- |
| Cc1ccncc1N1CCN(c2ccc(C#N)c(F)c2)C1=O [Example 140A, 2-Fluoro-4-[3-(4-methyl-pyridin-3-yl)-2-oxo-imidazolidin-1-yl]-benzonitrile] | 97 |

Same assay, conditions: human CYP17, substrate 0.25 μM; read-out: Lyase IC 50 Human/Rat (Human)

| pIC50 | Compound |
| --- | --- |
| < 5.00 | O=C1N(c2ccc3ncsc3c2)CCN1c1cncc2nccn12 [Example 186A, 1-Benzothiazol-6-yl-3-imidazo[1,2-a]pyrazin-5-yl-imidazolidin-2-one] |
| < 5.00 | CC(=O)Nc1cc(N2CCN(c3cnccc3C)C2=O)ccn1 [Example 96A] |
| < 5.00 | O=C1N(c2cnc3[nH]cnc3c2)CCN1c1ccc2ncsc2c1 [Example 183A, 1-Benzothiazol-6-yl-3-(3H-imidazo[4,5-b]pyridin-6-yl)-imidazolidin-2-one] |
| < 5.00 | Cc1nc2cc(N3CCN(c4cnccc4C)C3=O)ccc2o1 [Example 93A, 1-(2-Methyl-benzooxazol-5-yl)-3-(4-methyl-pyridin-3-yl)-imidazolidin-2-one] |
| < 5.00 | Cc1ccncc1N1CCN(c2ccc3nn(C)cc3c2)C1=O [Example 132A, 1-(2-Methyl-2H-indazol-5-yl)-3-(4-methyl-pyridin-3-yl)-imidazolidin-2-one] |

Same assay, conditions: read-out: Lyase IC 50 nM Human/Rat (Human)

| Compound | IC50 [nM] |
| --- | --- |
| Cc1c(N2CCN(c3ccc4ncsc4c3)C2=O)cncc1C(F)(F)F [Example 153A, 1-(benzo[d]thiazol-6-yl)-3-(4-methyl-5-(trifluoromethyl)pyridin-3-yl)imidazolidin-2-one, Trifluoroacetic Acid Salt] | 280 |

Same assay, conditions: substrate varied from 0.03125 μM to 1 μM, hyperbolic fit; read-out: Km (Michaelis Menton constant) of the substrate

| Compound | Km [µM] |
| --- | --- |
| CC(=O)C1(O)CCC2C3CC=C4CC(O)CCC4(C)C3CCC21C (stereo not drawn) [17-α-hydroxy pregnenolone [21-3H], reference compound] | 0.25 |
